Data from publication PMC11284792, “Backbone-Determined Antiarrhythmic Structure–Activity Relationships for a Mirror Image, Oligomeric Depsipeptide Natural Product” (Journal of Medicinal Chemistry, 2024).
“Also recorded” adds a separate entry of the source. Where two headings read alike, the source gives them in different places.

Columns and labels:
[1] = amide bond, 24-membered ring, PyBOP/DIPEA, DMF, 3 steps
RyR2 = molecular target: T1, RyR2 (Mus musculus, UniProt E9Q401); assay: Calcium spark assay in saponin-permeabilized ventricular cardiomyocytes; assay type: cell-based, mouse (C57BL/6J); settings: for Normalized Calcium Leak: CSV supplement, Series 2-5; for Normalized Calcium Leak / Calcium spark Amplitude (normalized to vehicle) / Calcium spark Leak (normalized to vehicle) / Calcium spark Mass (normalized to vehicle) / Calcium spark Frequency (normalized to vehicle): 25 μM drug, normalized to vehicle (DMSO), mean ± standard deviation; for Calcium spark Amplitude (normalized to vehicle) / Calcium spark Leak (normalized to vehicle) / Calcium spark Mass (normalized to vehicle) / Calcium spark Frequency (normalized to vehicle): Supplement Tables 2-3; for Calcium spark Amplitude (normalized to vehicle) / Calcium spark Leak (normalized to vehicle) / Calcium spark Mass (normalized to vehicle): permeabilized murine cardiomyocytes; for Calcium spark Frequency (normalized to vehicle): permeabilized murine left ventricular myocytes, 15 min incubation; for Inhibition of RyR2-mediated calcium sparks (in words): spark frequency after 15 min incubation with 25 μM compound, permeabilized myocytes
T1 construct: ventricular cardiomyocytes were isolated from C57Bl/6J mice, adhered to laminin-coated glass bottom culture dishes, permeabilized with saponin; endogenous in cells; host or cells: left ventricular cardiomyocytes freshly isolated from C57BL/6J mice, saponin-permeabilized
Method: With a wide range of ent-verticilide analogs in hand, organized by five series that systematically change the backbone functionality without modifying the alternating methyl and pentyl side chains, we pursued their evaluation in the calcium sparks assay for insight into potential antiarrhythmic activity.[3] Left ventricular myocytes were isolated from C57BL/6J mice and subjected to brief incubation with saponin, which permeabilizes the sarcolemma and enables equivalent access of compounds to RyR2, irrespective of their permeability.[14] Cardiomyocytes were then incubated in an internal solution designed to promote spontaneous RyR2-mediated calcium release events, known as sparks,[34] and the spark frequency was recorded following a 15 min incubation with 25 μM of each compound. Figure 3 summarizes these findings; no inhibition of RyR2 (lack of activity) is reflected as a value of 1 (dotted line). […] In that study, we noted that the 18-membered oligomer was more forgiving. […] Series 4–5 analogs produced nearly flat SAR, with no notable inhibition by any of the analogs.
Figure 3 RyR2-mediated calcium spark frequency in permeabilized left ventricular myocytes incubated with 25 μM drug for 15 min. All data normalized to vehicle (DMSO) condition. […] (A) *P < 0.0001 vs vehicle. N = 29 (2), 102 (5), 105 (5), 108 (5), 119 (4), and 87 cells (mice). Previously reported in Johnston et al. ACS Med. Chem. Lett., 2022, 13(11), 1755–1762. (B) *P < 0.0001 vs vehicle. # P = 0.00041 vs vehicle. N = 38, 46, 54, 50, and 50 cells, respectively, from 2 mice. (C) *P < 0.0001 vs vehicle. # P = 0.034 vs vehicle. N = 79 (4), 58 (3), 79 (4), 80 (5), and 91 (5) cells (mice). (D) P > 0.05 for all groups vs vehicle. N = 66 (4), 42 (2), 37 (2), 38 (2), 43(2), and 37 (2) cells (mice). (E) *P < 0.0001 vs vehicle. N = 66 (4), 85 (5), 93 (5), 100 (5), 89 (5), and 67 (4) cells (mice).
Calcium spark measurements were made, as previously described.[5] Briefly, ventricular cardiomyocytes were isolated from C57Bl/6J mice, adhered to laminin-coated glass bottom culture dishes, permeabilized with saponin, and incubated with an internal solution containing the calcium sensitive dye, Fluo-4. Elementary spark recordings were made using an Olympus inverted microscope equipped with a solid-state diode laser at 488 nm for excitation, 40× silicone objective (1.25 NA), and Hamamatsu CMOS camera for detection. Spark detection analysis was performed using SparkMaster2.[37]
Statistical analysis was carried out in R using a hierarchical clustering model to cluster data by experiment and account for mouse-to-mouse variability.[38] A cutoff value of 0.05 was used as the threshold to reject the null hypothesis. The numbers of cells and replicates (mice) are indicated in the figure legend for each compound.
Johnston et al. Supporting Information […]
of 0.05 was used as the threshold to reject the null hypothesis.
Safety: No unexpected or unusually high safety hazards were encountered.
Biological Experiment Data: Calcium spark parameters
For all series, assay is run with 25 μM solution of drug. Values are normalized to the vehicle (DMSO) condition and reported as mean ± standard deviation. Statistical comparisons were made using a hierarchical clustering model with Bonferroni correction. Adjusted p-values < 0.05 vs vehicle are indicated with an asterisk. Each mouse was an independent experiment, the replicates are listed as n (cells).
Supplement Table 1. Calcium spark parameters from murine cardiomyocytes for ent-verticilide and series 1 analogs.
Supplement Table 2. Calcium spark parameters from murine cardiomyocytes for series 2 analogs.
Supplement Table 3. Calcium spark parameters from murine cardiomyocytes for series 3 analogs. […]
Cardiovasc. Res.

T1 sequence (E9Q401 whole entry): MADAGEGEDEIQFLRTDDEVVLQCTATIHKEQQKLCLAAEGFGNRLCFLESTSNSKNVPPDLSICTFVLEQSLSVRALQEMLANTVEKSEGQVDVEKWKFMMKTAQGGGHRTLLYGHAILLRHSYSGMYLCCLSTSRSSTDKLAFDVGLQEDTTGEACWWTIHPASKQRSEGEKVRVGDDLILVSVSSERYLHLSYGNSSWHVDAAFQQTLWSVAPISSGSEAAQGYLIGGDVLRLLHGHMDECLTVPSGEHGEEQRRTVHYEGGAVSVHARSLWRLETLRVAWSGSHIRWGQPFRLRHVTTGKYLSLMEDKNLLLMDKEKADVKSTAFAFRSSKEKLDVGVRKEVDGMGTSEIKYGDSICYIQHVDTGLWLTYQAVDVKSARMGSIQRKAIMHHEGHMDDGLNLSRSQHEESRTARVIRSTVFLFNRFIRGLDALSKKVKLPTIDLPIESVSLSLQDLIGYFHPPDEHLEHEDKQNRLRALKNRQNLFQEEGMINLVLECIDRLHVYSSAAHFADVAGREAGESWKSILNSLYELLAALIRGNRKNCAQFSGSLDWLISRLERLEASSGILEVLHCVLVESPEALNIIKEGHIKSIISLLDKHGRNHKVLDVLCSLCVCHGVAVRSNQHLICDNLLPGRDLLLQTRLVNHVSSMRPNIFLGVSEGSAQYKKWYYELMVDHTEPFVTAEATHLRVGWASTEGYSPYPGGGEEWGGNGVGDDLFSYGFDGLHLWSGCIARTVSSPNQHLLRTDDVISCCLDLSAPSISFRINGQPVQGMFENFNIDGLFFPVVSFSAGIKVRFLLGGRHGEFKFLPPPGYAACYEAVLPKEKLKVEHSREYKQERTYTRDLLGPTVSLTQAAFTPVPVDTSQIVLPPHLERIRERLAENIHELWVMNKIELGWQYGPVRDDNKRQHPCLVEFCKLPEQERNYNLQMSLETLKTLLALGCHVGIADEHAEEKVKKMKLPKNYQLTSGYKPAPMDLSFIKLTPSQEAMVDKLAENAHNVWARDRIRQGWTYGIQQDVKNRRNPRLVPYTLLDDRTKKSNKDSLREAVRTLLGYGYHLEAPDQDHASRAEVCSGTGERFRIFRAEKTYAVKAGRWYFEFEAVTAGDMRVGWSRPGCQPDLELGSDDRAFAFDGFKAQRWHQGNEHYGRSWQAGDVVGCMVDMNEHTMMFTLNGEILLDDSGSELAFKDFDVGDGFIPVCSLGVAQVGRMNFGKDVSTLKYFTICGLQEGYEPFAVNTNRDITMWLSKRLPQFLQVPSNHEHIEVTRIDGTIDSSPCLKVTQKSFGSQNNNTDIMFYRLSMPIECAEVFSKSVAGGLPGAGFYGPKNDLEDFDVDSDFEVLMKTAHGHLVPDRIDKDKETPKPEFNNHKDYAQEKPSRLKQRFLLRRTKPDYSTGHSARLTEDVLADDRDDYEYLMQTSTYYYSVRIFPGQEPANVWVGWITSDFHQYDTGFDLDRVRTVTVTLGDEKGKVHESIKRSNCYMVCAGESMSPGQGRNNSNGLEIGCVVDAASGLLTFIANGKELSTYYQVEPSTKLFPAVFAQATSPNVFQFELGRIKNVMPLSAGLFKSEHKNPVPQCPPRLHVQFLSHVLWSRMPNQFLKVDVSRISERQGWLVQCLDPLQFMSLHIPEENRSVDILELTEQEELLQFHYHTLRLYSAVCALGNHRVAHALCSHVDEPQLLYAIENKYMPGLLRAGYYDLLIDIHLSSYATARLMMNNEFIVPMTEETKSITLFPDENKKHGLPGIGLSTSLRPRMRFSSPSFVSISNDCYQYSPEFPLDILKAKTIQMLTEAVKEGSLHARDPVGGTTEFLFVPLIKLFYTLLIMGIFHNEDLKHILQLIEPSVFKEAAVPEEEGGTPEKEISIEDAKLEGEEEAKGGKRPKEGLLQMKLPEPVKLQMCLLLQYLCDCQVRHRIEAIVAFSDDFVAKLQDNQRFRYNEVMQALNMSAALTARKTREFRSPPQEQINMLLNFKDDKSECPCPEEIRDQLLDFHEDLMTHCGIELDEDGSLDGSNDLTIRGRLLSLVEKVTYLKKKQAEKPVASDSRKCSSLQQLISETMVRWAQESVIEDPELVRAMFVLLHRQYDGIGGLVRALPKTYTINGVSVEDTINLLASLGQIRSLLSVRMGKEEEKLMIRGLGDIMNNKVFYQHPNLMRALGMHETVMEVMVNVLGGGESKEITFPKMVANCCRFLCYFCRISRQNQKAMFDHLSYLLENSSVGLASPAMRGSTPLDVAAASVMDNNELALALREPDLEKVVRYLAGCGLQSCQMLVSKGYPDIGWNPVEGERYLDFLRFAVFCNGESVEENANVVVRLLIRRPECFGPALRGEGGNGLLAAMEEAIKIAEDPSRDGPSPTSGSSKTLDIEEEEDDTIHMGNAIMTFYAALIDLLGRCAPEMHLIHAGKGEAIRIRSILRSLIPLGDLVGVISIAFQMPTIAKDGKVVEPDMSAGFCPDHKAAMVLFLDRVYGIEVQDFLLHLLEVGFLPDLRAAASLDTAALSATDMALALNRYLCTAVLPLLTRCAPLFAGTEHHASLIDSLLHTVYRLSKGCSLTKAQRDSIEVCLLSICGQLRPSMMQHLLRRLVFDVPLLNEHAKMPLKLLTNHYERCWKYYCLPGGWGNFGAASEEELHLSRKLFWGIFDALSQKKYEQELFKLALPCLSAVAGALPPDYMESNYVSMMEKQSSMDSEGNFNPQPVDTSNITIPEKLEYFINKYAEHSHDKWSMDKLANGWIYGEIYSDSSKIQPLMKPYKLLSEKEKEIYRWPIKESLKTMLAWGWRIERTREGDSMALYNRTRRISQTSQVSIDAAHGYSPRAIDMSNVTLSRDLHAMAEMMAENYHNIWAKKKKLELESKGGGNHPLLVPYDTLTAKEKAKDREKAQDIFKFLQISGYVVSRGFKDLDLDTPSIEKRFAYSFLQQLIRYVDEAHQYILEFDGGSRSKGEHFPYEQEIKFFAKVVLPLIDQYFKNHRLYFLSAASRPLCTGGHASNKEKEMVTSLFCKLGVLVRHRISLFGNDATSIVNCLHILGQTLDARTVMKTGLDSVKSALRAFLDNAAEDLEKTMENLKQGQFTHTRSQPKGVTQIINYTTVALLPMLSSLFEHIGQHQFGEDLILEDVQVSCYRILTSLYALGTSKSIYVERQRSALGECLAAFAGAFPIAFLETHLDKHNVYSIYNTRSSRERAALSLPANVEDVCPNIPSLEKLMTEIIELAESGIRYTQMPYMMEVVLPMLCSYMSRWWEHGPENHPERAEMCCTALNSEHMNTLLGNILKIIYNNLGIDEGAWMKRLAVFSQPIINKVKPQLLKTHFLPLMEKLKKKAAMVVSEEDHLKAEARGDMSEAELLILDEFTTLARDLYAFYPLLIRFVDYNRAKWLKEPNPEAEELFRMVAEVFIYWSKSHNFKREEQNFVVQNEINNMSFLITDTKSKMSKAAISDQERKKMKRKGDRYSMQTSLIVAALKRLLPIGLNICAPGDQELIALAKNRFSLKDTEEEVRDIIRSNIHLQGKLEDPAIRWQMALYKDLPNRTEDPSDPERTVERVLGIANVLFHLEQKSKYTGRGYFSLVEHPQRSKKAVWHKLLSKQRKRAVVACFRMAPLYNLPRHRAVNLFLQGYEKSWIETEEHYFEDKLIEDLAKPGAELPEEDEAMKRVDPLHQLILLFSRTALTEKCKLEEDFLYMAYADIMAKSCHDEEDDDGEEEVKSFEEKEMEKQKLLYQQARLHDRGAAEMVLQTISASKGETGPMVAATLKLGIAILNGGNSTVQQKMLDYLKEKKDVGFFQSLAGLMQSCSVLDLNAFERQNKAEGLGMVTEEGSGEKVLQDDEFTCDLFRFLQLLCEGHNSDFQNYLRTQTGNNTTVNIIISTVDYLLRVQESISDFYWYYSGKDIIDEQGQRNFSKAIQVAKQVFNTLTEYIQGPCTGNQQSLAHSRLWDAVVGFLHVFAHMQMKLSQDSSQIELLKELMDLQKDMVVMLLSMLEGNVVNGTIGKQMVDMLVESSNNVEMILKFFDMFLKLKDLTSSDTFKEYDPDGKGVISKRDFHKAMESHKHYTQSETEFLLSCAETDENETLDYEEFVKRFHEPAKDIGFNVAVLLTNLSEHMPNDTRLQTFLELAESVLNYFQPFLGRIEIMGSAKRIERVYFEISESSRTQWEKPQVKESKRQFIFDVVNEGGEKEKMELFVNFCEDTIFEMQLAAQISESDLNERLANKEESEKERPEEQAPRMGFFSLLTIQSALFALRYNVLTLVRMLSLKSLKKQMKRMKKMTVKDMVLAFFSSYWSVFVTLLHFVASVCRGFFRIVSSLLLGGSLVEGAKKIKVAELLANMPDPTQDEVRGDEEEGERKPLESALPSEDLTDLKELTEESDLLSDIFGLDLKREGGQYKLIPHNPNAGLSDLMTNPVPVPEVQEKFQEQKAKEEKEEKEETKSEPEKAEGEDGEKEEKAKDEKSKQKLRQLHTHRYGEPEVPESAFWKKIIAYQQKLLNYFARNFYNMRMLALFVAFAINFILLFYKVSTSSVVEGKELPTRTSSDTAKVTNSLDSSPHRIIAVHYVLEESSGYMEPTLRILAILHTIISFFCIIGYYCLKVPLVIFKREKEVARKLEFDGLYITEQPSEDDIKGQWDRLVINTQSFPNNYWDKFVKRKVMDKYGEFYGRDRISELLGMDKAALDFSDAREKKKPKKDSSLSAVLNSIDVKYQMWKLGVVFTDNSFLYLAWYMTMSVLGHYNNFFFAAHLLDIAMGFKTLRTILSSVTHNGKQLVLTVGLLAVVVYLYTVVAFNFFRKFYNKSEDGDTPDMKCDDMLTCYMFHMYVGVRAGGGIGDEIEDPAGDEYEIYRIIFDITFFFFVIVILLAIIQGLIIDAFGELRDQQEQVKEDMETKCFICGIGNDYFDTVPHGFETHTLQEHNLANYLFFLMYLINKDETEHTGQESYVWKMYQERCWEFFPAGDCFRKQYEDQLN

Substance	ring closure, yield after HPLC [1]	ring closure, yield after HPLC ([1]; 4.6 mM)	Normalized Calcium Leak (RyR2)	Calcium spark Amplitude (normalized to vehicle) (RyR2)	Calcium spark Leak (normalized to vehicle) (RyR2)	Calcium spark Mass (normalized to vehicle) (RyR2)	Calcium spark Frequency (normalized to vehicle) (RyR2)	Inhibition of RyR2-mediated calcium sparks (in words) (RyR2)
(3R,6S,9R,12S,15R,18S,21R,24S)-1,3,4,7,9,10,13,15,16,19,21,22-dodecamethyl-6,12,18,24-tetrapentyl-1,4,7,10,13,16,19,22-octaazacyclotetracosan-2,5,8,11,14,17,20,23-octaone	8%	–	–	–	–	–	–	–
(3R,6S,9R,12S,15R,18S,21R,24S)-1,3,4,7,9,10,13,15,16,19,21-undecamethyl-6,12,18,24-tetrapentyl-1,4,7,10,13,16,19,22-octaazacyclotetracosan-2,5,8,11,14,17,20,23-octaone	–	7.5%	–	–	–	–	–	–
(3R,6S,9R,12S,15R,18S,21R,24S)-1,3,4,7,9,10,13,15,16,19,21-undecamethyl-6,12,18,24-tetrapentyl-1,4,7,10,13,16,19,22-octaazacyclotetracosan-2,5,8,11,14,17,20,23-octaone [4.2]	–	–	1.35 ± 1.14	–	–	–	–	–
(3R,6S,9R,12S,15R,18S,21R,24S)-1,3,4,7,9,13,15,19,21-nonamethyl-6,12,18,24-tetrapentyl-1,4,7,10,13,16,19,22-octaazacyclotetracosan-2,5,8,11,14,17,20,23-octaone [4.5]	–	–	1.43 ± 0.66	–	–	–	–	–
(3R,6S,9R,12S,15R,18S,21R,24S)-1,3,7,9,13,15,19,21-octamethyl-6,12,18,24-tetrapentyl-1,4,7,10,13,16,19,22-octaazacyclotetracosan-2,5,8,11,14,17,20,23-octaone [4.6]	–	–	1.15 ± 0.71	–	–	–	–	–
(3R,6S,9R,12S,15R,18S,21R,24S)-3,4,7,9,10,15,16,19,21,22-decamethyl-6,12,18,24-tetrapentyl-1,13-dioxa-4,7,10,16,19,22-hexaazacyclotetracosan-2,5,8,11,14,17,20,23-octaone [3.3]	–	–	0.93 ± 0.45	1.00 ± 0.16	0.93 ± 0.45	0.96 ± 0.42	0.96 ± 0.26	–
(3R,6S,9R,12S,15R,18S,21R,24S)-3,4,9,10,13,15,16,19,21,22-decamethyl-6,12,18,24-tetrapentyl-1,7-dioxa-4,10,13,16,19,22-hexaazacyclotetracosan-2,5,8,11,14,17,20,23-octaone [3.2]	–	–	0.99 ± 0.53	1.02 ± 0.20	0.99 ± 0.53	1.03 ± 0.50	0.97 ± 0.28	–
(3R,6S,9R,12S,15R,18S,21R,24S)-3,4,9,10,15,16,19,21,22-nonamethyl-6,12,18,24-tetrapentyl-1,7,13-trioxa-4,10,16,19,22-pentaazacyclotetracosan-2,5,8,11,14,17,20,23-octaone [3.1]	–	–	0.75 ± 0.63	0.99 ± 0.20	0.75 ± 0.63	0.81 ± 0.55	0.79 ± 0.29	partial inhibition, but less so than analog 2.1; also recorded: measurable activity
(3R,6S,9R,12S,15R,18S,21R,24S)-3,4,9,10,15,16,21,22-octamethyl-6,12,18,24-tetrapentyl-1,7,13-trioxa-4,10,16,19,22-pentaazacyclotetracosan-2,5,8,11,14,17,20,23-octaone [2.1]	–	–	0.60 ± 0.65	0.93 ± 0.31	0.60 ± 0.65	1.04 ± 0.64	0.51 ± 0.25	modest potency; also recorded: measurable activity
(3R,6S,9R,12S,15R,18S,21R,24S)-3,4,9,10,15,16,21,22-octamethyl-6,12,18,24-tetrapentyl-1,13-dioxa-4,7,10,16,19,22-hexaazacyclotetracosan-2,5,8,11,14,17,20,23-octaone [2.3]	–	–	1.03 ± 0.53	0.92 ± 0.19	1.03 ± 0.53	1.02 ± 0.43	1.01 ± 0.20	–
(3R,6S,9R,12S,15R,18S,21R,24S)-3,4,9,10,15,16,21,22-octamethyl-6,12,18,24-tetrapentyl-1-oxa-4,7,10,13,16,19,22-heptaazacyclotetracosan-2,5,8,11,14,17,20,23-octaone [2.4]	–	–	0.97 ± 0.56	1.08 ± 0.22	0.97 ± 0.56	0.98 ± 0.39	0.97 ± 0.17	–
(3S,6R,9S,12R,15S,18R,21S,24R)-1,4,6,7,10,12,13,16,18,19,24-undecamethyl-3,9,15,21-tetrapentyl-1,4,7,10,13,16,19,22-octaazacyclotetracosan-2,5,8,11,14,17,20,23-octaone [5.2]	–	–	1.08 ± 0.66	–	–	–	–	–
(3S,6R,9S,12R,15S,18R,21S,24R)-1,4,6,7,10,12,13,18,19,24-decamethyl-3,9,15,21-tetrapentyl-1,4,7,10,13,16,19,22-octaazacyclotetracosan-2,5,8,11,14,17,20,23-octaone [5.3]	–	–	1.23 ± 0.57	–	–	–	–	–
(3S,6R,9S,12R,15S,18R,21S,24R)-1,4,6,7,12,13,16,18,19,24-decamethyl-3,9,15,21-tetrapentyl-1,4,7,10,13,16,19,22-octaazacyclotetracosan-2,5,8,11,14,17,20,23-octaone [5.4]	–	–	1.14 ± 0.69	–	–	–	–	–
(3S,6R,9S,12R,15S,18R,21S,24R)-1,4,6,7,12,13,18,19,24-nonamethyl-3,9,15,21-tetrapentyl-1,4,7,10,13,16,19,22-octaazacyclotetracosan-2,5,8,11,14,17,20,23-octaone [5.5]	–	–	1.14 ± 0.65	–	–	–	–	–
(3S,6R,9S,12R,15S,18R,21S,24R)-1,6,7,12,13,18,19,24-Octamethyl-3,9,15,21-tetrapentyl-1,4,7,10,13,16,19,22-octaazacyclotetracosan-2,5,8,11,14,17,20,23-octaone [2.5]	–	–	1.09 ± 0.46	1.17 ± 0.34	1.09 ± 0.46	1.06 ± 0.35	1.04 ± 0.20	–
